Experimental data: patent publication US9802927B2, “Oxadiazine compounds and methods of use thereof” (Denali Therapeutics, Inc., priority 2015, dated 2017)

system: Aβ42; experiment: In vitro cell screening assay in H4 cells expressing human APP751: Aβ42 by sandwich ELISA; format: cell-based; details: Homo sapiens, compounds 0.003-10 μM, incubated overnight (16-18 h), sandwich ELISA of supernatant
In short: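 Secreted Aβ42 measured by sandwich ELISA, C-terminal-specific capture and 4G8-HRP detection, TMB read at 450 nm, from supernatants of APP751-expressing H4 cells exposed overnight (16-18 h) to 0.003-10 μM compound in Pro293 medium, 0.33% DMSO. Data scaled between DMSO and DAPT controls; EC50 from variable-slope nonlinear regression.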

Row | EC50 | SMILES
1 | 201 nM | COc1nc(C2=NOCC(C3CCC(F)(F)CC3)N2)ccc1-n1cnc(C)c1 (single isomer, unassigned; (+)) [Example 139B, (+)-5-(4,4-difluorocyclohexyl)-3-(6-methoxy-5-(4-methyl-1H-imidazol-1-yl)pyridin-2-yl)-5,6-dihydro-4H-1,2,4-oxadiazine]
2 | > 3000 nM | COc1nc(C2=NOCC(C)N2)ccc1-n1cnc(C)c1 (single isomer, unassigned; (+)) [Example 149A, (+)-3-(6-methoxy-5-(4-methyl-1H-imidazol-1-yl)pyridin-2-yl)-5-methyl-5,6-dihydro-4H-1,2,4-oxadiazine]
3 | 1730 nM | COc1nc(C2=NOCC(c3cscn3)N2)ccc1-n1cnc(C)c1 (single isomer, unassigned; (+)) [Example 156A, (+)-3-(6-methoxy-5-(4-methyl-1H-imidazol-1-yl)pyridin-2-yl)-5-(thiazol-4-yl)-5,6-dihydro-4H-1,2,4-oxadiazine]
4 | > 3000 nM | COc1nc(C2=NOCC(c3ccccn3)N2)ccc1-n1cnc(C)c1 (single isomer, unassigned; (+)) [Example 168A, (+)-3-(6-methoxy-5-(4-methyl-1H-imidazol-1-yl)pyridin-2-yl)-5-(pyridin-2-yl)-5,6-dihydro-4H-1,2,4-oxadiazine]
5 | > 3000 nM | COc1nc(C2=NOCC(C3CCS(=O)(=O)CC3)N2)ccc1-n1cnc(C)c1 (single isomer, unassigned; (+)) [Example 177A, (+)-4-(3-(6-methoxy-5-(4-methyl-1H-imidazol-1-yl)pyridin-2-yl)-5,6-dihydro-4H-1,2,4-oxadiazin-5-yl) tetrahydro-2H-thiopyran 1,1-dioxide]

same assay, conditions: compounds 0.003-10 μM, incubated overnight (16-18 h), sandwich ELISA of supernatant

Row | EC50 | SMILES
6 | 38.8 nM | COc1nc(C2=NOCC(c3ccc(C4CC4)cc3)N2)ccc1-n1cnc(C)c1 (single isomer, unassigned; (+)) [Example 116B, (+)-5-(4-cyclopropylphenyl)-3-(6-methoxy-5-(4-methyl-1H-imidazol-1-yl)pyridin-2-yl)-5,6-dihydro-4H-1,2,4-oxadiazine]
7 | 9.9 nM | COc1nc(C2=NOCC(c3cc(Cl)cc(Cl)c3)N2)ccc1-n1cnc(C)c1 (single isomer, unassigned; (+)) [Example 118B, (+)-5-(3,5-dichlorophenyl)-3-(6-methoxy-5-(4-methyl-1H-imidazol-1-yl)pyridin-2-yl)-5,6-dihydro-4H-1,2,4-oxadiazine]
8 | 54.8 nM | COc1nc(C2=NOCC(c3nn(C)c4ccccc34)N2)ccc1-n1cnc(C)c1 (single isomer, unassigned; (+)) [Example 124B, (+)-3-(6-methoxy-5-(4-methyl-1H-imidazol-1-yl)pyridin-2-yl)-5-(1-methyl-1H-indazol-3-yl)-5,6-dihydro-4H-1,2,4-oxadiazine]
9 | 23 nM | COc1nc(C2=NOCC(c3cccc(C4CC4)c3)N2)ccc1-n1cnc(C)c1 (single isomer, unassigned; (+)) [Example 127B, (+)-5-(3-cyclopropylphenyl)-3-(6-methoxy-5-(4-methyl-1H-imidazol-1-yl)pyridin-2-yl)-5,6-dihydro-4H-1,2,4-oxadiazine]
10 | 102 nM | COc1nc(C2=NOCC(c3ccccc3C)N2)ccc1-n1cnc(C)c1 (single isomer, unassigned; (+)) [Example 131A, (+)-3-(6-methoxy-5-(4-methyl-1H-imidazol-1-yl)pyridin-2-yl)-5-(o-tolyl)-5,6-dihydro-4H-1,2,4-oxadiazine]
11 | 214 nM | COc1nc(C2=NOCC(c3cccc(C#N)c3)N2)ccc1-n1cnc(C)c1 (single isomer, unassigned; (+)) [Example 141B, (+)-3-(3-(6-methoxy-5-(4-methyl-1H-imidazol-1-yl)pyridin-2-yl)-5,6-dihydro-4H-1,2,4-oxadiazin-5-yl) benzonitrile]
12 | 2460 nM | COc1nc(C2=NOCC(C3CCOCC3)N2)ccc1-n1cnc(C)c1 (single isomer, unassigned; (+)) [Example 143B, (+)-3-(6-methoxy-5-(4-methyl-1H-imidazol-1-yl)pyridin-2-yl)-5-(tetrahydro-2H-pyran-4-yl)-5,6-dihydro-4H-1,2,4-oxadiazine]
13 | 197 nM | COc1cccc(C2CON=C(c3ccc(-n4cnc(C)c4)c(OC)n3)N2)c1 (single isomer, unassigned; (+)) [Example 145B, (+)-3-(6-methoxy-5-(4-methyl-1H-imidazol-1-yl)pyridin-2-yl)-5-(3-methoxyphenyl)-5,6-dihydro-4H-1,2,4-oxadiazine]
14 | 1720 nM | COc1nc(C2=NOCC(C(C)(C)C)N2)ccc1-n1cnc(C)c1 (single isomer, unassigned; (+)) [Example 147B, (+)-5-(tert-butyl)-3-(6-methoxy-5-(4-methyl-1H-imidazol-1-yl)pyridin-2-yl)-5,6-dihydro-4H-1,2,4-oxadiazine]
15 | 450 nM | COc1nc(C2=NOCC(c3ccc(C#N)cc3)N2)ccc1-n1cnc(C)c1 (single isomer, unassigned; (+)) [Example 151B, (+)-4-(3-(6-methoxy-5-(4-methyl-1H-imidazol-1-yl)pyridin-2-yl)-5,6-dihydro-4H-1,2,4-oxadiazin-5-yl) benzonitrile]
16 | 930 nM | COc1nc(C2=NOCC(CC(C)C)N2)ccc1-n1cnc(C)c1 (single isomer, unassigned; (+)) [Example 154A, (+)-5-isobutyl-3-(6-methoxy-5-(4-methyl-1H-imidazol-1-yl)pyridin-2-yl)-5,6-dihydro-4H-1,2,4-oxadiazine]
17 | > 3000 nM | COc1nc(C2=NOCC(c3oc(C)nc3C)N2)ccc1-n1cnc(C)c1 (single isomer, unassigned; (+)) [Example 161B, (+)-5-(2,4-dimethyloxazol-5-yl)-3-(6-methoxy-5-(4-methyl-1H-imidazol-1-yl)pyridin-2-yl)-5,6-dihydro-4H-1,2,4-oxadiazine]
18 | > 3000 nM | COc1nc(C2=NOCC(C3CCC3)N2)ccc1-n1cnc(C)c1 (single isomer, unassigned; (+)) [Example 163A, (+)-5-cyclobutyl-3-(6-methoxy-5-(4-methyl-1H-imidazol-1-yl)pyridin-2-yl)-5,6-dihydro-4H-1,2,4-oxadiazine]
19 | > 3000 nM | COc1nc(C2=NOCC(c3cnn(C)c3)N2)ccc1-n1cnc(C)c1 (single isomer, unassigned; (+)) [Example 166B, (+)-3-(6-methoxy-5-(4-methyl-1H-imidazol-1-yl)pyridin-2-yl)-5-(1-methyl-1H-pyrazol-4-yl)-5,6-dihydro-4H-1,2,4-oxadiazine]
20 | 918 nM | COc1nc(C2=NOCC(C3CCCC3)N2)ccc1-n1cnc(C)c1 (single isomer, unassigned; (+)) [Example 171A, (+)-5-cyclopentyl-3-(6-methoxy-5-(4-methyl-1H-imidazol-1-yl)pyridin-2-yl)-5,6-dihydro-4H-1,2,4-oxadiazine]
21 | 281 nM | COc1nc(C2=NOCC(C3CC(F)(F)C3)N2)ccc1-n1cnc(C)c1 (single isomer, unassigned; (+)) [Example 180B, (+)-5-(3,3-difluorocyclobutyl)-3-(6-methoxy-5-(4-methyl-1H-imidazol-1-yl)pyridin-2-yl)-5,6-dihydro-4H-1,2,4-oxadiazine]
22 | 260 nM | COc1nc(C2=NOCC(c3ccc4ncsc4c3)N2)ccc1-n1cnc(C)c1 (single isomer, unassigned; (+)) [Example 183B, (+)-5-(benzo [d]thiazol-6-yl)-3-(6-methoxy-5-(4-methyl-1H-imidazol-1-yl)pyridin-2-yl)-5,6-dihydro-4H-1,2,4-oxadiazine]
